“And” between values parts separate entries of the source, which are not always exact repeats. Equal entries are not always repeated.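 Five concentrations, 48 hours, 96-well plates. GI50: concentration for 50% inhibition of growth. The concentration for full growth arrest is given as TGI.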
Columns and labels:
Assay in all cases: DTP human tumour cell line panel, 48 h
A498 renal = system: A498 renal
HCC-2998 colon = system: HCC-2998 colon
MDA-MB-231 breast = system: MDA-MB-231 breast
NCI-H522 lung = system: NCI-H522 lung
NCI/ADR-RES ovarian = system: NCI/ADR-RES ovarian
SF-268 CNS = system: SF-268 CNS
SK-MEL-2 melanoma = system: SK-MEL-2 melanoma
SNB-19 CNS = system: SNB-19 CNS
SW-620 colon = system: SW-620 colon
TK-10 renal = system: TK-10 renal

Structure (SMILES)	GI50 (A498 renal)	TGI (A498 renal)	GI50 (HCC-2998 colon)	TGI (HCC-2998 colon) [µM]	GI50 (MDA-MB-231 breast)	TGI (MDA-MB-231 breast) [µM]	GI50 (NCI-H522 lung)	TGI (NCI-H522 lung)	GI50 (NCI/ADR-RES ovarian)	TGI (NCI/ADR-RES ovarian)	GI50 (SF-268 CNS)	TGI (SF-268 CNS) [µM]	GI50 (SK-MEL-2 melanoma) [µM]	TGI (SK-MEL-2 melanoma) [µM]	GI50 (SNB-19 CNS)	TGI (SNB-19 CNS) [µM]	GI50 (SW-620 colon)	TGI (SW-620 colon) [µM]	GI50 (TK-10 renal)	TGI (TK-10 renal) [µM]
Cc1[nH]nc2c1N=C(c1ccccc1F)c1cc(C(N)=O)ccc1N2	1.08 µM	6.02 µM	8.51 µM	> 25	6.8 µM	> 25	2.19 µM	> 19.6 µM	> 25 µM	> 25 µM	2.22 µM	8.46	2.45	7.14	6.43 µM	> 25	2.34 µM	> 25	3.61 µM	16.3
CC(C)CC(Nc1c(O)ccc2ccccc12)C(=O)O (configuration not stated)	–	67.3 µM	–	> 100	–	> 100	–	> 100 µM	–	> 100 µM	–	83.3	–	42.5	–	> 100	–	> 100	–	> 100
Cc1cc(C(=O)NC(CCC(=O)O)C(=O)O)sc1CCC1CNc2nc(N)[nH]c(=O)c2C1 (configuration not stated)	0.199 µM and 0.0945 µM	> 100 µM	0.0677 µM and 0.323 µM	> 100	6.72 µM and 12.8 µM	> 100	< 0.0226 µM and 0.0546 µM	> 100 µM	0.0499 µM and 0.0758 µM	> 100 µM	0.044 µM and 0.0721 µM	> 100	–	> 100	0.0783 µM and 0.606 µM	> 100	< 0.0174 µM and 0.0255 µM	> 100	0.0355 µM and 0.065 µM	> 100
O=S1(=O)CS(=O)(=O)OCCO1	–	154 µM	68.1 µM	106	–	352	> 96.4 µM	140 µM	25.7 µM	89.6 µM and 270 µM	85.6 µM	249	–	119	–	324	–	321	–	363
CCCCNC(=O)Oc1ccc(/C(=C(/C)Cc2ccc(OC)cc2)c2ccc(OCCN3CCCC3)cc2)cc1	4.7 µM	18.5 µM	1.83 µM	3.48	1.87 µM	3.49	2.02 µM	4.05 µM	3.11 µM	11.6 µM	1.98 µM	4.4	2.13	4.23	3.47 µM	11.4	1.78 µM	3.36	4.31 µM	17.8
CN1CCN(Cc2ccc(NC(=O)c3cncc(C#Cc4cncc5nccnc45)c3)cc2C(F)(F)F)CC1	0.772 µM	3.22 µM	1.73 µM	8.48	0.869 µM	4.59	3.17 µM	10.8 µM	6.68 µM	25.1 µM	5.22 µM	16.6	0.915	2.7	9 µM	18.9	0.878 µM	7.7	5.34 µM	12.8
C[C@]1(Cn2ccnn2)C(C(=O)O)N2C(=O)CC2S1(=O)=O (some centres not stated)	> 100 µM	> 100 µM	> 100 µM	> 100	> 100 µM	> 100	> 100 µM	> 100 µM	> 100 µM	> 100 µM	> 100 µM	> 100	> 100	> 100	> 100 µM	> 100	> 100 µM	> 100	> 100 µM	> 100
COc1ccc2c(Cl)cc(NC(=O)Nc3c(C)cccc3C)nc2c1	2.9 µM	22.4 µM	> 100 µM	> 100	13.3 µM	> 100	> 100 µM	> 100 µM	> 100 µM	> 100 µM	39.7 µM	> 100	28.6	85	72.7 µM	> 100	38.9 µM	> 100	11.2 µM	58.2
COC(=O)C(CBr)CBr	–	31.8 µM	–	10.9	–	4.36	–	4.76 µM	–	8.45 µM	–	41.9	–	30.5	–	13.3	–	3.11	–	10.8
C/C(=N\NC(=S)N1CC2CCC(CC2)C1)c1cccc(C)n1	–	13.2 µM	–	19.1	–	17.8	0.232 µM	0.343 µM and 1.5 µM	< 0.0001 µM	–	–	13	–	21.4	0.26 µM	14.3	0.383 µM	31.8	0.786 µM	16.1
COC(=O)/C=C1/SC(N2N=C(c3cccs3)CC2c2ccc(F)cc2)=NC1=O (configuration not stated)	1.81 µM	6.26 µM	1.97 µM	3.52	2.96 µM	8.16	2.15 µM	4.79 µM	2.84 µM	8.61 µM	2.95 µM	12.6	4.04	15.6	2.51 µM	6.32	2.16 µM	5	2.6 µM	8.16
c1cncc(C2Nc3cccc4cccc(c34)N2)c1	30.9 µM	> 100 µM	> 100 µM	> 100	20.3 µM	65.7	14.6 µM	35.1 µM	33.8 µM	> 100 µM	33.8 µM	> 100	30.9	64.4	> 100 µM	> 100	18.4 µM	36.3	26.8 µM	73.6
N#Cc1c(N)nc(N)nc1N[C@H](c1nc2c(F)ccc(Cl)c2c(=O)n1-c1cccnc1)C1CC1	0.249 µM	1.55 µM	12.7 µM	28.4	11.8 µM	36.3	34.2 µM	> 100 µM	28.5 µM	> 100 µM	12.3 µM	> 100	23.3	> 100	13 µM	28.6	11.1 µM	> 100	1.92 µM	15.6
CCCCC(=O)N/N=C/c1c(O)ccc2ccccc12	7.71 µM	44.4 µM	3.88 µM	> 100	3.51 µM	> 94.8	1.77 µM	10.2 µM	1.68 µM	> 30.2 µM	0.874 µM	> 75	3.67	> 23.7	4.26 µM	> 100	3.54 µM	> 100	1.82 µM	> 24.3
CCc1cc2ncc(CN3CCN(c4ccc(C(=O)NC)nc4)CC3)cc2[nH]c1=O	> 100 µM	> 100 µM	87.9 µM	> 100	82 µM	> 100	27.1 µM	> 100 µM	> 100 µM	> 100 µM	> 100 µM	> 100	> 100	> 100	99.7 µM	> 100	> 100 µM	> 100	43.1 µM	> 100
Cc1[nH]c(-c2nc3ccccc3[nH]2)c(C)c1C(=O)NC(C)C1CCCCC1 (configuration not stated)	7.71 µM	20.1 µM	13.6 µM	34.6	10.4 µM	29.4	13.2 µM	44 µM	10.2 µM	28 µM	11.9 µM	30.9	10.1	25.5	10.6 µM	24.8	4.95 µM	18.3	21.5 µM	41.6
CCOC(=O)c1c(C)nc2c(c1N)CC(=O)N2CCc1ccccc1	3.2 µM	10.8 µM	3.49 µM	12.8	0.896 µM	14	0.283 µM	1.11 µM	2.05 µM	27.2 µM	0.477 µM	19	0.53	6.8	4.52 µM	23.3	0.47 µM	11.1	0.596 µM	15
O=C1C(=O)c2ccccc2C(O)=C1CCCc1ccc(C2CCCCCC2)cc1	0.349 µM	13.1 µM	0.863 µM	22.7	5.76 µM	42.2	2.64 µM	32.7 µM	0.702 µM	11.9 µM	0.625 µM	26.7	1.12	21.4	0.803 µM	> 100	0.576 µM	33.2	3.14 µM	57
CN1CCN(c2nc(NCCCNc3ccnc4cc(Cl)ccc34)c3ccccc3n2)CC1	12.9 µM	25.6 µM	3 µM	12.5	2.76 µM	8.94	3.24 µM	7.7 µM	22 µM	59.1 µM	4.71 µM	19.2	3.18	9.09	3.77 µM	15.3	3.23 µM	12.8	10.8 µM	26.2
CCCCNC(=O)c1cc(NCc2cc(O)ccc2O)ccc1O	41.1 µM	> 100 µM	17.6 µM	35.5	7.41 µM	21.7	1.32 µM	2.94 µM	25 µM	> 100 µM	10.3 µM	23.6	22.8	65	41.4 µM	> 100	18.9 µM	43.4	22.6 µM	37.6
COc1cc(N2CCN(C(C)C)CC2)ccc1Nc1nc(Nc2cccc(F)c2C(=O)O)c2cc[nH]c2n1	> 25 µM	> 25 µM	> 25 µM	> 25	> 25 µM	> 25	> 25 µM	> 25 µM	> 25 µM	> 25 µM	> 25 µM	> 25	> 25	> 25	> 25 µM	> 25	> 25 µM	> 25	> 25 µM	> 25
Cc1ccc(C2=C(c3ccc(C)cc3)C3(c4ccc(C)cc4)C4C(=O)c5ccccc5C(=O)C4C2(c2ccc(C)cc2)S3=O)cc1 (configuration not stated)	> 100 µM	> 100 µM	> 100 µM	> 100	60 µM	> 100	> 100 µM	> 100 µM	> 100 µM	> 100 µM	> 100 µM	> 100	> 100	> 100	63.7 µM	> 100	> 100 µM	> 100	> 100 µM	> 100
COc1cc2ncnc(Nc3ccc4c(cnn4Cc4ccccc4)c3)c2cc1OC	> 18.6 µM	> 25 µM	> 25 µM	> 25	7.13 µM	> 25	0.724 µM	> 25 µM	> 19.5 µM	> 25 µM	> 25 µM	> 25	> 25	> 25	> 25 µM	> 25	> 25 µM	> 25	0.131 µM	> 25
CCOC(=O)c1oc2ccc([N+](=O)[O-])c3c2c1CCC3	–	> 100 µM	–	> 100	–	> 100	–	> 85.2 µM	–	> 100 µM	–	72.2	–	> 100	–	> 89.6	–	> 100	–	85.9
C[n+]1c(-c2ccc(/C=N/NC(=O)c3ccc(C(=O)N/N=C/c4ccc(-c5cn6ccccc6[n+]5C)cc4)cc3)cc2)cn2ccccc21	172 µM	70.8 µM and 309 µM	577 µM	> 1000	119 µM	242	186 µM	326 µM	553 µM	> 1000 µM	> 1000 µM	> 1000	270	498	248 µM	517	> 1000 µM	> 1000	228 µM	374
COc1cc(-c2cc(/C=C/C(=O)c3ccc(Cl)c(Cl)c3)[nH]n2)cc(OC)c1OC	5.89 µM	43 µM	9.56 µM	31.4	8.65 µM	> 100	1.33 µM	3.04 µM	10.6 µM	> 100 µM	13.7 µM	63.3	13.9	34.1	9.83 µM	> 100	8.63 µM	79.6	8.34 µM	43.2
O=C(O)CCc1c2ccc(=O)c(O)c-2oc2c(O)c(O)ccc12	–	> 100 µM	–	> 100	–	62.9	–	> 100 µM	–	> 100 µM	–	> 100	–	> 100	–	> 100	–	59.9	–	> 100

— PubChem BioAssay (NCI)
